Test results taken from patent US8344022B2, “Vaginal health products” (Kimberly-Clark Worldwide, Inc., priority 2004, dated 2013).
“And” between values parts separate entries of the source, which are not always exact repeats. Identical values can stand only once.

Assays:
[1] = system: stratum corneum; experiment: Dansyl chloride cell renewal study in healthy female volunteers; assay type: in vivo, human
From the text: The stratum corneum renewal time is the time taken for the whole thickness of the stratum corneum to be exfoliated and replaced by new cells from the dividing epidermis. This renewal time is a fundamental indicator of skin health. […] See Jansen L H, Hojyo-Tomoko M T, Kligman A M., Improved fluorescence staining technique for estimating turnover of the human stratum corneum, Br J Dermatol., 90, 9-12, 1974; Ridge B D, Batt M D, Palmer H E, Jarrett A, The dansyl chloride technique for stratum corneum renewal as an indicator of changes in epidermal mitotic activity following topical treatment., Br J Dermatol., 118, 167-74, 1988; Grove G L, Kligman A M, Age-associated changes in human epidermal cell renewal., J Geron., 38, 137-142, 1983. The time required for the dye to disappear is therefore an indication of the turnover time of the stratum corneum. Therefore, any differences in the time required for the dye to disappear from treated and non-treated sites can be considered to be an expression of that product's ability to enhance epidermal renewal.
A dansyl chloride cell renewal study was conducted in healthy female volunteers ranging from 43-64 years of age. The study consisted of a two-week treatment period during which time the products were applied topically twice daily, including on weekend days, to the test sites. The area of application was designated, approximately 5 cm×10 cm on the upper inner arm. The other arm served as a control with no product application. […] Eight females received jasmonic acid and seven females received gibberellic acid.
The time required for a marker dye to disappear was used as the measure of cell renewal rate.

[2] = system: Human cervical epithelial cells (ME-180); experiment: ME-180 cell growth with jasmonic acid (hemocytometer counting); assay type: cell-based; conditions: 1, 10 and 100 μg/ml, two days
Method: Human cervical epithelial cells (ME-180, ATCC) were propagated in culture at 37° C. using 5% CO2 in McCoy's 5A media (Invitrogen) with 10% heat-inactivated fetal bovine serum (Invitrogen). Jasmonic acid (Sigma) was diluted in the ME-180 media to 100, 10, and 1 microgram/mL.
ME-180 cells were plated in 12-well plates at a concentration of 5×10^4 cells per well in 2 mL of media. The cells were allowed to grow for 1 day. Cells in three wells were counted by trypsinizing and using a hemocytometer to determine cell number on day zero. The media was removed from all other wells and was replaced with fresh media, 100, 10, or 1 μg/mL jasmonic acid-containing media (2 mL) in triplicate. Cells were counted on days 1 and 2 to determine the effect of the jasmonic acid on cell growth.

[3] = system: fibronectin production in human skin fibroblast cell line; experiment: Fibronectin production by human skin fibroblasts (Takara EIA MK115); assay type: cell-based; conditions: for fibronectin production, Mean (absorbance at 450 nm) / fibronectin production, Median (absorbance at 450 nm): 48 hours, n=2
Method: The cells were first grown in a 96-well assay system using Dulbecco's Modified Eagle's Medium (DMEM) with 10% fetal bovine serum (FBS) both purchased from Sigma Chemical Co, St. Louis, Mo. Serum-free DMEM was used as a control. […] The fibronectin assay was performed using the recommended 100 μl of the supernatant from each well of the 96-well plate. Standard buffer and stop solutions were freshly prepared before running the assay. A pre-antibody-coated 96 well plate (provided with the kit) was used to transfer the test samples and control. The plate was mixed, sealed and incubated for 1 hour at 37° C. All the wells were washed after removing sample solutions, 3 times (300 μl) with washing buffer. 100 ul of antibody-POD conjugate solution was added into the wells. Plate was mixed, sealed and incubated for one hour at 37° C. Solutions were removed and the wells were washed 3 times with washing buffer. All the wells were completely emptied at the end of washing from any liquid. 100 μl of substrate solution (hydrogen peroxide and tetramethylbenzidine in a buffered solution) was added to each well and the plate was incubated at room temperature for 15 minutes. 100 μl of stop solution (freshly prepared 1N H2SO4) was added to each well in the same order as substrate. The plate was gently mixed and absorbance was read at 450 nm.

[4] = system: human skin keratinocytes; experiment: Keratinocyte proliferation, 96-well Cell Titer 96 assay; assay type: cell-based; conditions: for Cell Proliferation, Mean (absorbance at 490 nm) / Cell Proliferation, Median (absorbance at 490 nm): 48 hours, n=5
Method: The proliferative response of these human skin keratinocytes to the test compounds was measured in a 96-well assay system using keratinocyte basal medium (KBM, Clonetics, catalog number CC-3103) as a control. […] In addition, 100 μl of vehicle KBM was added to 5 wells as control. […] The spectrophotometric absorbance of each well was read at 490 nm.

[5] = system: collagen production in human skin fibroblast cell line; experiment: Collagen production by human skin fibroblasts (Takara EIA MK101); assay type: cell-based; conditions: for Collagen Production, Mean (absorbance at 450 nm) / Collagen Production, Median (absorbance at 450 nm): 48 hours, n=2
Method: The cells were first grown in a 96-well assay system using Dulbecco's Modified Eagle's Medium (DMEM) with 10% fetal bovine serum (FBS) both purchased from Sigma Chemical Co, St. Louis, Mo. Serum-free DMEM was used as a control.
The assay was done by using the recommended 20 ul of the supernatant from each well of the 96-well plate. Standard buffer and stop solutions were freshly prepared before running the assay. 100 ul of antibody-POD conjugate solution (supplied with the kit) was added into the wells using pre antibody coated 96 well plate (supplied with the kit). 20 ul of standard and test solutions (from the other 96-well plate containing fibroblasts) were added to appropriate wells. Plate was mixed gently, sealed and incubated for three hrs. at 37° C.
After incubation each well was washed carefully four times with PBS buffer (400 ul). All the wells were completely emptied at the end of washing from any liquid.
100 ul of substrate solution (hydrogen peroxide and tetramethylbenzidine in a buffer solution, supplied with the kit) was added to each well and the plate was incubated for 15 minutes. At this point 100 ul of stop solution (freshly prepared 1N H2SO4) was added to each well in the same order as substrate. The plate was gently mixed and absorbance was read at 450 nm.

Question: How did the “skin irritation or redness” value ([1]; human, in vivo) turn out when CC/C=C\C[C@H]1C(=O)CC[C@@H]1CC(=O)O [jasmonic acid] was run?
Answer: The value was “no visible sign of any skin irritation or redness”.

Question: What about the “RENEWAL, time for cell renewal of treated skin” value ([1]; individual patients (one value per patient #), 0.25% in hyaluronic acid (0.5% aqueous solution), topical twice daily, upper inner arm, listed as JA) of the same compound?
Answer: Its value is 16 Days and 15 Days (2×) and 17 Days and 14 Days and 11 Days and 12 Days (2×).

Question: What about the “faster cell renewal rate over control” value ([1]; overall, 0.25% topical, vs untreated arm) of the same compound?
Answer: The value was 28%.

Question: What about the “reduction in time required for cell renewal vs untreated control” value ([1]; vs volunteers' control without treatment) of the same compound?
Answer: Its value is “about 28%”.

Question: What about the “ME-180 epithelial cell growth (FIGS. 8 and 9)” value [2] of the same compound?
Answer: Its value is “increased cell growth in a dose dependent manner”.

Question: And the “fibronectin production, Mean (absorbance at 450 nm)” value (from here on “fibronectin production, Mean”) ([3]; 1×10^−4 M)?
Answer: Its value is 0.2060.

Question: What about the “fibronectin production, Median (absorbance at 450 nm)” value (shortened to “fibronectin production, Median”) ([3]; 1×10^−4 M) of the same compound?
Answer: Its value is 0.2060.

Question: What about the “fibronectin production, Mean” value ([3]; 1×10^−5 M) of the same compound?
Answer: The value was 0.2025.

Question: And the “fibronectin production, Median” value ([3]; 1×10^−5 M)?
Answer: Its value is 0.2025.

Question: What about the “fibronectin production, Mean” value ([3]; 1×10^−6 M) of the same compound?
Answer: Its value is 0.1955.

Question: What about the “fibronectin production, Median” value ([3]; 1×10^−6 M) of the same compound?
Answer: The value was 0.1955.

Question: What about the “fibronectin production in human fibroblasts (summary in words)” value ([3]; all concentrations tested, vs control) of the same compound?
Answer: Its value is “effective”.

Question: What about the “Cell Proliferation, Mean (absorbance at 490 nm)” value (from here on “Cell Proliferation, Mean”) ([4]; 1×10^−4 M) of the same compound?
Answer: Its value is 0.5732.

Question: And the “Cell Proliferation, Median (absorbance at 490 nm)” value (shortened to “Cell Proliferation, Median”) ([4]; 1×10^−4 M)?
Answer: Its value is 0.5860.

Question: And the “cell proliferating activity on human keratinocytes (summary in words)” value ([4]; 1×10^−4 to 1×10^−6 M)?
Answer: Its value is “strong cell proliferating activity”.

Question: What about the “Cell Proliferation, Mean” value ([4]; 1×10^−5 M) of the same compound?
Answer: The value was 0.7628.

Question: What about the “Cell Proliferation, Median” value ([4]; 1×10^−5 M) of the same compound?
Answer: The value was 0.7750.

Question: And the “Cell Proliferation, Mean” value ([4]; 1×10^−6 M)?
Answer: The value was 0.7734.

Question: What about the “Cell Proliferation, Median” value ([4]; 1×10^−6 M) of the same compound?
Answer: Its value is 0.7970.

Question: What about the “Collagen Production, Mean (absorbance at 450 nm)” value (from here on “Collagen Production, Mean”) ([5]; 1×10^−4 M) of the same compound?
Answer: The value was 0.8040.

Question: What about the “Collagen Production, Median (absorbance at 450 nm)” value (“Collagen Production, Median” below) ([5]; 1×10^−4 M) of the same compound?
Answer: Its value is 0.8040.

Question: And the “collagen production in human fibroblasts (summary in words)” value ([5]; 1×10^−4 to 1×10^−6 M)?
Answer: Its value is “stimulate collagen production”.

Question: What about the “Collagen Production, Mean” value ([5]; 1×10^−5 M) of the same compound?
Answer: The value was 0.7895.

Question: And the “Collagen Production, Median” value ([5]; 1×10^−5 M)?
Answer: The value was 0.7895.

Question: What about the “Collagen Production, Mean” value ([5]; 1×10^−6 M) of the same compound?
Answer: Its value is 0.7475.

Question: And the “Collagen Production, Median” value ([5]; 1×10^−6 M)?
Answer: The value was 0.7475.
